Results: PubChem BioAssay AID2060886 (Molecular Pharmacology Branch, DTP, NCI, 2025)

Tested on: 653999-131-R-J2-PDC complex spheroids, growth inhibition
Test: Anticancer human tumor 653999-131-R-J2-PDC patient-derived lung adenocarcinoma cell line growth inhibition [RAS]
Settings: for IC50: curve of first compound; for viability, T/C: stronger effect = lower value; active means viability on the fitted dose curve at most 10% of control; inactive means the rest
Procedure, shortened: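 Tumour cells grown as complex spheroids with HUVEC endothelial cells and mesenchymal stem cells, treated with RAS pathway inhibitor combinations. Each agent spans half-log steps from near clinical Cmax, or 10 microM where Cmax is unknown.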
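Further: spheroids exposed to the agents for seven days before the readout.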

CCc1c2c(nc3ccc(O)cc13)-c1cc3c(c(=O)n1C2)COC(=O)[C@]3(O)CC + C#Cc1c(F)ccc2cc(O)cc(-c3ncc4c(N5CC6CCC(C5)N6)nc(OCC56CCCN5CC(F)C6)nc4c3F)c12
active: viability, T/C (second compound 3.16 µM, first compound 0.0949 µM) 9.96% | viability, T/C (second compound 3.16 µM, first compound 0.3 µM) 7.39% | viability, T/C (second compound 10 µM, first compound 0.03 µM) 9.45% | viability, T/C (second compound 10 µM, first compound 0.0949 µM) 7.29% | viability, T/C (second compound 10 µM, first compound 0.3 µM) 4.35%
inactive: viability, T/C (second compound 0.0316 µM, first compound 0.000949 µM) 85.8% | viability, T/C (second compound 0.0316 µM, first compound 0.003 µM) 68.4% | viability, T/C (second compound 0.0316 µM, first compound 0.00949 µM) 43.6% | viability, T/C (second compound 0.0316 µM, first compound 0.03 µM) 30.7% | viability, T/C (second compound 0.0316 µM, first compound 0.0949 µM) 24.1% | viability, T/C (second compound 0.0316 µM, first compound 0.3 µM) 14.2% | viability, T/C (second compound 0.1 µM, first compound 0.000949 µM) 83.9% | viability, T/C (second compound 0.1 µM, first compound 0.003 µM) 58.7% | viability, T/C (second compound 0.1 µM, first compound 0.00949 µM) 48.4% | viability, T/C (second compound 0.1 µM, first compound 0.03 µM) 35.2% | viability, T/C (second compound 0.1 µM, first compound 0.0949 µM) 22.9% | viability, T/C (second compound 0.1 µM, first compound 0.3 µM) 12.2% | viability, T/C (second compound 0.316 µM, first compound 0.000949 µM) 57.5% | viability, T/C (second compound 0.316 µM, first compound 0.003 µM) 41.4% | viability, T/C (second compound 0.316 µM, first compound 0.00949 µM) 32.2% | viability, T/C (second compound 0.316 µM, first compound 0.03 µM) 23.5% | viability, T/C (second compound 0.316 µM, first compound 0.0949 µM) 17.5% | viability, T/C (second compound 0.316 µM, first compound 0.3 µM) 13.3% | viability, T/C (second compound 1 µM, first compound 0.000949 µM) 40.3% | viability, T/C (second compound 1 µM, first compound 0.003 µM) 26.4% | viability, T/C (second compound 1 µM, first compound 0.00949 µM) 21.4% | viability, T/C (second compound 1 µM, first compound 0.03 µM) 20.2% | viability, T/C (second compound 1 µM, first compound 0.0949 µM) 15.1% | viability, T/C (second compound 1 µM, first compound 0.3 µM) 20.8% | viability, T/C (second compound 3.16 µM, first compound 0.000949 µM) 39.2% | viability, T/C (second compound 3.16 µM, first compound 0.003 µM) 21.2% | viability, T/C (second compound 3.16 µM, first compound 0.00949 µM) 16.6% | viability, T/C (second compound 3.16 µM, first compound 0.03 µM) 11.6% | viability, T/C (second compound 10 µM, first compound 0.000949 µM) 26.8% | viability, T/C (second compound 10 µM, first compound 0.003 µM) 17.8% | viability, T/C (second compound 10 µM, first compound 0.00949 µM) 12.5%
7.98 nM: IC50 (second compound 0.1 µM)
7.6 nM: IC50 (second compound 0.0316 µM)
< 0.949 nM: IC50 (second compound 1 µM) | IC50 (second compound 3.16 µM) | IC50 (second compound 10 µM)
1.67 nM: IC50 (second compound 0.316 µM)

CC(C)NCC(C(=O)N1CCN(c2ncnc3c2C(C)CC3O)CC1)c1ccc(Cl)cc1 (centres undefined) + CCn1c(-c2cccnc2C(C)OC)c2c3cc(ccc31)N1CCOC(CC(NC(=O)C(C(C)C)N(C)C(=O)C3(F)CCN(C(=O)C#CC(C)(C)N(C)C)CC3)C(=O)N3CCCC(N3)C(=O)OCC(C)(C)C2)C1
1530 nM: IC50 (second compound 0.00949 µM) | IC50 (second compound 0.03 µM)
996 nM: IC50 (second compound 0.3 µM)
inactive: viability, T/C (second compound 0.000949 µM, first compound 0.0316 µM) 91% | viability, T/C (second compound 0.000949 µM, first compound 0.1 µM) 110% | viability, T/C (second compound 0.000949 µM, first compound 0.316 µM) 72.1% | viability, T/C (second compound 0.000949 µM, first compound 1 µM) 53.1% | viability, T/C (second compound 0.000949 µM, first compound 3.16 µM) 41.6% | viability, T/C (second compound 0.000949 µM, first compound 10 µM) 34.6% | viability, T/C (second compound 0.003 µM, first compound 0.0316 µM) 86.8% | viability, T/C (second compound 0.003 µM, first compound 0.1 µM) 99.8% | viability, T/C (second compound 0.003 µM, first compound 0.316 µM) 70.2% | viability, T/C (second compound 0.003 µM, first compound 1 µM) 54.3% | viability, T/C (second compound 0.003 µM, first compound 3.16 µM) 40.6% | viability, T/C (second compound 0.003 µM, first compound 10 µM) 32.9% | viability, T/C (second compound 0.00949 µM, first compound 0.0316 µM) 118% | viability, T/C (second compound 0.00949 µM, first compound 0.1 µM) 94.4% | viability, T/C (second compound 0.00949 µM, first compound 0.316 µM) 83.6% | viability, T/C (second compound 0.00949 µM, first compound 1 µM) 48.2% | viability, T/C (second compound 0.00949 µM, first compound 3.16 µM) 44.7% | viability, T/C (second compound 0.00949 µM, first compound 10 µM) 30.6% | viability, T/C (second compound 0.03 µM, first compound 0.0316 µM) 101% | viability, T/C (second compound 0.03 µM, first compound 0.1 µM) 85.1% | viability, T/C (second compound 0.03 µM, first compound 0.316 µM) 76.4% | viability, T/C (second compound 0.03 µM, first compound 1 µM) 53.5% | viability, T/C (second compound 0.03 µM, first compound 3.16 µM) 40.8% | viability, T/C (second compound 0.03 µM, first compound 10 µM) 31.2% | viability, T/C (second compound 0.0949 µM, first compound 0.0316 µM) 109% | viability, T/C (second compound 0.0949 µM, first compound 0.1 µM) 81.7% | viability, T/C (second compound 0.0949 µM, first compound 0.316 µM) 73.3% | viability, T/C (second compound 0.0949 µM, first compound 1 µM) 47.3% | viability, T/C (second compound 0.0949 µM, first compound 3.16 µM) 39.9% | viability, T/C (second compound 0.0949 µM, first compound 10 µM) 36.5% | viability, T/C (second compound 0.3 µM, first compound 0.0316 µM) 92% | viability, T/C (second compound 0.3 µM, first compound 0.1 µM) 85.7% | viability, T/C (second compound 0.3 µM, first compound 0.316 µM) 64.8% | viability, T/C (second compound 0.3 µM, first compound 1 µM) 49.9% | viability, T/C (second compound 0.3 µM, first compound 3.16 µM) 42.5% | viability, T/C (second compound 0.3 µM, first compound 10 µM) 34.2%
953 nM: IC50 (second compound 0.000949 µM)
1160 nM: IC50 (second compound 0.0949 µM)
1240 nM: IC50 (second compound 0.003 µM)
